Converted amounts (≈) assume the structure as drawn. “And” between values parts separate entries of the source, which are not always exact repeats. Equal values may be shown once.
Legend:
Assay type in all cases: physicochemical
[1] = Solvent shift assay in FaSSIF
Experimental: A solvent shift assay was performed in order to assess the effect of polymer excipients in improving supersaturation and sustainment in biorelevant media. Compound 1 was dissolved in DMSO to generate concentrated dissolved stock solution at 25 mg/mL. Stock API solution was then added to Fasted State Simulated Intestinal Fluid (FaSSIF) solution or FaSSIF solution containing predissolved polymer excipients to final concentration of compound 1 at 0.5 mg/mL. Ratios of Compound 1:polymer excipient in the final solution were either 20:80 or 40:60 (w/w). Samples were analyzed by HPLC to assess dynamic solubility of Compound 1 at various time points over a one hour period.

[2] = Non-sink dissolution, 0.1N HCl then FaSSIF
Experimental: Sample of solid dispersions containing Compound 1 were analyzed in a non-sink dissolution experiment. Dispersion samples and neat Compound 1 were suspended in 0.1N HCl media at a concentration of 1000 ug/mL Compound 1. Concentration of each sample was then measured by centrifugation to pellet undissolved material, and an aliquot of the supernatant was assessed by HPLC for concentration. Material was then agitated in a Distek 2100 C Dissolution apparatus, USP Type II. Instrument was operated according to standard instrument procedures provided by manufacturer. Parameters used for the experiment are shown below in Table 11. After 30 minutes, the media was modulated to FaSSIF by adding equivalent volume of FaSSIF buffer with bile salts, bringing the theoretical concentration of compound 1 to 500 μg/mL. Dissolved concentration of Compound 1 in each sample was then assessed periodically by HPLC. […] These resulting values can be seen in Table 12 below.

[3] = DSC of crystalline Compound 1; details: ramp 10.0° C./min, 35° C.-275° C.
Experimental: A sample of Compound 1 was analyzed by Differential Scanning Calorimetry using a TA Discovery DSC2500 with RCS90 chiller according to standard instrument procedures provided by manufacturer. Parameters used for the analysis are shown below in Table 3. Two replicates of the experiment were run with reproducible results. The resulting thermogram, shown in FIG. 10B, indicated a melting temperature (Tm) of Compound 1 of about 229° C. and no degradation up to 275° C.

[4] = MDSC of spray dried solid dispersions; details: n = 3
Experimental: Samples of the solid dispersions containing Compound 1 were analyzed by Differential Scanning Calorimetry using a TA Discovery DSC2500 with RCS90 chiller according to standard instrument procedures provided by manufacturer. Parameters used for the analysis are shown below in Table 9. Three replicates of the experiment were run for each dispersion.

[5] = Log D7.4, shake-flask partitioning; details: pH 7.4, shake-flask (Pion, Inc.)
Experimental: Several biopharmaceutically relevant parameters of the API (Compound 1) were obtained for the API. […] Based on these two biopharmaceutical parameters, this compound is possibly a BCS Class II. Solubility enhancement is critical for bioavailability of the API for dosing. Therefore, to overcome the limitation from solubility, several experiments were conducted to assess various solubility enhancement approaches utilized in formulation development

[6] = Equilibrium solubility by HPLC, Form C, ambient temperature; details: for solubility: thermodynamic from solid
Experimental: […] (as a part of feasibility assessment of liquid dosage form in formulation development and dissolution method development), a number of […] […] The equilibrated suspensions were isolated by centrifuge and the filtrates were injected into HPLC to determine equilibrium solubility of the API in each solvent system.

[7] = Saturated solubility at 80° C., visually estimated; details: Capmul MCM
[8] = Amorphous form: mDSC glass transition and TGA; details: preliminary TGA data
Experimental: To assess the feasibility of solid dispersion approach in formulation development, the glass transition temperature of the material was determined by modulated differential scanning calorimetry (mDSC). […] Therefore, as preparing an in-situ amorphous material in DSC pan, the end temperature should not ramp beyond 260° C. The amorphous samples were generated by heating the raw APIs from 25 to 250° C., followed by a rapid cooling to −60° C. The glass transition temperature (Tg) was measured by a slow heating of the generated amorphous samples from −60° C. to 250° C. The Tg for in-situ generated amorphous material from C and Form A was 93° C. and 97° C., respectively. The discrepancy in the two Tg values may simply due to the variation of water content in the samples or chemical purity.

[9] = Non-sink dissolution of unmicronized and micronized Form C in SLS in water; details: aqueous with cosolvent or surfactant or cyclodextrin
From the text: The enhancement in dissolution rate from micronized samples was likely due to the increase in surface area after micronization supported by microscopic images and particle sizing.

In the case of `CC(=O)N1CCc2c(C(=O)N3CCC(c4ccc(F)c(F)c4C(F)(F)F)CC3)n[nH]c2C1` [Compound 1, 1-(3-(4-(3,4-difluoro-2-(trifluoromethyl)phenyl)piperidine-1-carbonyl)-1,4,5,7-tetrahydro-6H-pyrazolo[3,4-c]pyridin-6-yl)ethan-1-one], the “Total Drug AUC FaSSIF” value ([1]; 0.5 mg/mL Compound 1 from DMSO stock into FaSSIF, one hour) was 13100 min*μgA/mL, the “Total Drug C60” value ([1]; FaSSIF, 60 min) was 91.3 μgA/mL and the “AUC 5-180 IB” value ([2]; FaSSIF) was 1300 min*μgA/mL. For the same compound, the C210 ([2]; final concentration) was 7.1 μgA/mL, the “no degradation up to (DSC)” value [3] was 275 °C and the Tg [4] was 93.4 °C. For the same compound, the “Tg Onset” value [4] was 89.4 °C, the logD [5] was 3.23 and the solubility ([6]; Canola Oil, oil or lipid, Canola Oil, read-out: Solubility by HPLC) was 0.031 mg/mL (≈ 67.9 µM). It also gave a solubility ([6]; Capmul MCM, EP, oil or lipid, Capmul MCM, EP, read-out: Solubility by HPLC) of 3.9 mg/mL (≈ 8540 µM), a solubility ([6]; Capmul MCM, NF, oil or lipid, Capmul MCM, NF, read-out: Solubility by HPLC) of 4.4 mg/mL (≈ 9640 µM) and a solubility ([6]; Captex 300, EP/NF, oil or lipid, Captex 300, EP/NF, read-out: Solubility by HPLC) of 0.064 mg/mL (≈ 140 µM). The solubility ([6]; Captex 355, EP/NF, oil or lipid, Captex 355, EP/NF, read-out: Solubility by HPLC) was 0.049 mg/mL (≈ 107 µM), the solubility ([6]; Castor Oil, oil or lipid, Castor Oil, read-out: Solubility by HPLC) was 0.99 mg/mL (≈ 2170 µM) and the solubility ([6]; Corn Oil, oil or lipid, Corn Oil, read-out: Solubility by HPLC) was 0.031 mg/mL (≈ 67.9 µM). For the same compound, the solubility ([6]; FaSSIF, pH 4.96, fassif, FaSSIF, Final pH: 4.96, read-out: Solubility by HPLC) was 0.039 mg/mL (≈ 85.4 µM), the solubility ([6]; FaSSIF, pH 4.99, fassif, FaSSIF, Final pH: 4.99, read-out: Solubility by HPLC) was 0.047 mg/mL (≈ 103 µM) and the solubility ([6]; FaSSIF, pH 6.77, fassif, FaSSIF, Final pH: 6.77, read-out: Solubility by HPLC) was 0.0051 mg/mL (≈ 11.2 µM). It also gave a solubility ([6]; FaSSIF, pH 6.78, fassif, FaSSIF, Final pH: 6.78, read-out: Solubility by HPLC) of 0.0032 mg/mL (≈ 7.01 µM), a solubility ([6]; Gelucire 44/14 1 mg/mL (500× cmc), aqueous with cosolvent or surfactant or cyclodextrin, Gelucire 44/14, 1 mg/mL (500× cmc), read-out: Solubility by HPLC) of 0.0008 mg/mL (≈ 1.75 µM) and a solubility ([6]; Kolliphor HS-15, 35 °C, organic solvent or mixture, Kolliphor HS-15, Stirred at 35° C., read-out: Solubility by HPLC) of 2.8 mg/mL (≈ 6130 µM). For the same compound, the solubility ([6]; Kolliphor P188 0.4 mM (3.2× cmc), aqueous with cosolvent or surfactant or cyclodextrin, Kolliphor P188, 0.4 mM (3.2× cmc), read-out: Solubility by HPLC) was 0.0016 mg/mL (≈ 3.51 µM), the solubility ([6]; Kolliphor P188 4 mM (32× cmc), aqueous with cosolvent or surfactant or cyclodextrin, Kolliphor P188, 4 mM (32× cmc), read-out: Solubility by HPLC) was 0.0031 mg/mL (≈ 6.79 µM) and the solubility ([6]; Labrafil M1944CS, oil or lipid, Labrafil M1944CS, read-out: Solubility by HPLC) was 0.28 mg/mL (≈ 613 µM). It also gave a solubility ([6]; Labrasol, oil or lipid, Labrasol, read-out: Solubility by HPLC) of 1.7 mg/mL (≈ 3720 µM), a solubility ([6]; Lecithin 61 mg/mL (100× cmc), aqueous with cosolvent or surfactant or cyclodextrin, Lecithin, 61 mg/mL (100× cmc), read-out: Solubility by HPLC) of 0.053 mg/mL (≈ 116 µM) and a solubility ([6]; Miglyol 810, oil or lipid, Miglyol 810, read-out: Solubility by HPLC) of 0.053 mg/mL (≈ 116 µM). The solubility ([6]; Miglyol 812, oil or lipid, Miglyol 812, read-out: Solubility by HPLC) was 0.052 mg/mL (≈ 114 µM), the solubility ([6]; Oleic Acid, oil or lipid, Oleic Acid, read-out: Solubility by HPLC) was 0.39 mg/mL (≈ 854 µM) and the solubility ([6]; PEG 400, organic solvent or mixture, PEG 400, read-out: Solubility by HPLC) was 2 mg/mL (≈ 4380 µM). For the same compound, the solubility ([6]; Peceol, oil or lipid, Peceol, read-out: Solubility by HPLC) was 1.3 mg/mL (≈ 2850 µM), the solubility ([6]; Plurol Oleique CC 497, oil or lipid, Plurol Oleique CC 497, read-out: Solubility by HPLC) was 1.2 mg/mL (≈ 2630 µM) and the solubility ([6]; Sodium Lauryl Sulfate 8.2 mM (cmc), aqueous with cosolvent or surfactant or cyclodextrin, Sodium Lauryl Sulfate, 8.2 mM (cmc), read-out: Solubility by HPLC) was 0.15 mg/mL (≈ 329 µM). For the same compound, the solubility ([6]; Sodium Lauryl Sulfate 41 mM (5× cmc), aqueous with cosolvent or surfactant or cyclodextrin, Sodium Lauryl Sulfate, 41 mM (5× cmc), read-out: Solubility by HPLC) was 1.6 mg/mL (≈ 3510 µM), the solubility ([6]; Sodium Lauryl Sulfate 82 mM (10× cmc), aqueous with cosolvent or surfactant or cyclodextrin, Sodium Lauryl Sulfate, 82 mM (10× cmc), read-out: Solubility by HPLC) was 2.4 mg/mL (≈ 5260 µM) and the “Solubility by HPLC” value ([6]; Sodium Lauryl Sulfate, 0.82M (100× cmc)) was 17 mg/mL and 19 mg/mL. It also gave a solubility ([6]; Soybean Oil, oil or lipid, Soybean Oil, read-out: Solubility by HPLC) of 0.03 mg/mL (≈ 65.7 µM), a solubility ([6]; Transcutol HP, organic solvent or mixture, Transcutol HP, read-out: Solubility by HPLC) of 4.7 mg/mL (≈ 10300 µM) and a solubility ([6]; Triacetic, organic solvent or mixture, Triacetic, read-out: Solubility by HPLC) of 0.43 mg/mL (≈ 942 µM). It also gave a solubility ([6]; Tween 80, 1.2 mM (100× CMC), aqueous with cosolvent or surfactant or cyclodextrin, Tween 80, 1.2 mM (100× cmc), read-out: Solubility by HPLC) of 0.56 mg/mL (≈ 1230 µM), a solubility ([6]; Vitamin E TPGS 0.2 wt % (10× cmc), aqueous with cosolvent or surfactant or cyclodextrin, Vitamin E TPGS, 0.2 wt % (10× cmc), read-out: Solubility by HPLC) of 0.02 mg/mL (≈ 43.8 µM) and a solubility ([6]; Vitamin E TPGS 2 wt % (100× cmc), aqueous with cosolvent or surfactant or cyclodextrin, Vitamin E TPGS, 2 wt % (100× cmc), read-out: Solubility by HPLC) of 0.04 mg/mL (≈ 87.6 µM). The solubility ([6]; Water, pH 8.99, water, Water, Final pH: 8.99, read-out: Solubility by HPLC) was 0.001 mg/mL (≈ 2.19 µM), the solubility ([6]; ethanol, organic solvent or mixture, Ethanol, read-out: Solubility by HPLC) was 3.1 mg/mL (≈ 6790 µM) and the solubility ([6]; organic solvent or mixture, EtOH, PEG 400, Propylene glycol, Capmul MCM NF, Kolliphor EL, Capmul MCM EP, Plurol Oleique CC 497, Peceol, Labrasol, SLS at 5× and 10×CMC, Transcutol HP, read-out: solubility of the API) was 1 to 5 mg/mL (≈ 2190 to 11000 µM). It also gave a solubility ([6]; pH 1.0 buffer, pH 1, simulated gastric fluid, pH 1.0 buffer, Final pH: 0.89, read-out: Solubility by HPLC) of 0.0012 mg/mL (≈ 2.63 µM), a solubility ([6]; pH 4.5 buffer, pH 4.5, aqueous buffer, pH 4.5 buffer, Final pH: 4.80, read-out: Solubility by HPLC) of 0.0011 mg/mL (≈ 2.41 µM) and a solubility ([6]; pH 6.8 buffer, pH 6.8, aqueous buffer, pH 6.8 buffer, Final pH: 6.50, read-out: Solubility by HPLC) of 0.0008 mg/mL (≈ 1.75 µM). The solubility ([6]; propylene glycol, organic solvent or mixture, Propylene Glycol, read-out: Solubility by HPLC) was 2.6 mg/mL (≈ 5700 µM), the solubility ([6]; sodium lauryl sulfate solution, 0.82 M (100× CMC), aqueous with cosolvent or surfactant or cyclodextrin, Sodium Lauryl Sulfate, 0.82M (100× cmc), read-out: Solubility by HPLC) was > 10 mg/mL and the solubility ([6]; sulfobutylether β-cyclodextrin, 40 wt %, aqueous with cosolvent or surfactant or cyclodextrin, Sulfobutylether β-CD, 40 wt %, read-out: Solubility by HPLC) was 0.75 mg/mL (≈ 1640 µM). The solubility ([7]; 80 °C, oil or lipid, thermodynamic from solid) was 16 mg/mL (≈ 35100 µM), the saturated solubility ([7]; listed as API) was 20 mg/mL and the “temperature at which continuous weight loss due to decomposition started (TGA)” value [8] was 260 °C. For the same compound, the solubility ([9]; 0.366% SLS in water, read-out: nominal solubility of the API) was ~0.46 mg/mL (≈ 1010 µM) and the solubility ([9]; 0.36% SLS in water, calculated from SLS concentration vs solubility profile, read-out: solubility of the API) was 0.445 mg/mL (≈ 974 µM).

From patent publication US11951100B2, “Formulations of RBP4 inhibitors and methods of use” (Belite Bio, LLC, priority 2019, dated 2024)
